This note sets out measurements from patent US8148403B2, “Substituted piperidyl-propane-thiols” (Boehringer Ingelheim International GmbH, priority 2006, dated 2012).

Structures are written as SMILES.

Usually melting point stands for the temperature of the solid-liquid transition. With `CCc1c(C2CCN(CCCSc3ccc(F)cc3)CC2)c2ccc(F)cc2n1-c1nc(C)ccc1O` [Example 3], the melting point is 142 °C.
